Results as given in US20240360166A1, “SALTS AND SOLID FORMS OF A COMPOUND HAVING GLP-1 AGONIST ACTIVITY” (Gasherbrum Bio, Inc., priority 2022, published 2024).
Entries after “also recorded” stand apart in the source; their conditions may differ.

Tests used:
[1] = Kinetic solubility in water, pH buffers and bio-relevant media at 37° C. (Table 5-6); format: physicochemical; conditions: for pH: pH of solubility sample; for XRPD: residual solids
Description: Around 10 mg material was weighed into 5 mL water, buffer solution, SGF, FaSSIF or FeSSIF^1 followed by rolling at 25 rpm at 37° C. for 0.5 and 1 h. At each time point, around 0.8 mL suspension was sampled out for centrifugation and filtration. Solids were tested by XRPD.

[2] = Solid stability evaluation of free acid Form A, Na salt Form A and L-arginine salt Form A, 2 weeks (Table 5-5); format: physicochemical; conditions: for Form change: XRPD
[3] = Hygroscopicity, DVS evaluation of free acid Form A and re-prepared salts (Table 5-7); format: physicochemical; conditions: for Form change after DVS: XRPD after DVS, * converted to a potential isomorphic hydrate by XRPD
Description: XRPD characterization was performed for the samples after DVS test.
DVS was measured via a SMS (Surface Measurement Systems) DVS Intrinsic. The relative humidity at 25° C. were calibrated against deliquescence point of LiCl, Mg(NO3)2 and KCl.

[4] = Dog pharmacokinetic study, Free Acid Form A, sodium salt Form A, L-arginine salt Form A in oral HPMC capsule (Table 8-5); format: in vivo; conditions: 2 mg/kg, male Beagle dogs
Description: The objective of this study was to characterize the pharmacokinetics (PK) of Compound I in male Beagle dogs after oral (PO) or IV administration. […] The dose was administered orally by gavage to dogs. […] The plasma concentration of Compound I was determined by liquid chromatography with mass spectrometric detection (LC-MS/MS).

[5] = 50 mM acetate buffer (4.5), 0.5 h, 37° C.
[6] = alkaline borate buffer (8), 0.5 h, 37° C.
[7] = alkaline borate buffer (8), 1.0 h, 37° C.
[8] = 25° C./92.5% RH, open container, 2 weeks
[9] = 40° C./75% RH, open container, 2 weeks
[10] = 60° C., tight container, 2 weeks

With “3-((1S,2S)-1-(2-((S)-3-(3-(4-(diethylphosphoryl)-3-(methylamino)phenyl)-2-oxo-2,3-dihydro-1H-imidazol-1-yl)-2-(4-fluoro-3,5-dimethylphenyl)-4-methyl-4,5,6,7-tetrahydro-2H-pyrazolo[4,3-c]pyridine-5-carbonyl)-5-(tetrahydro-2H-pyran-4-yl)-1H-indol-1-yl)-2-methylcyclopropyl)-1,2,4-oxadiazol-5(4H)-one sodium salt Form A [Compound I sodium salt Form A]” the Solubility ([1]; 50 mM acetate buffer (4.5), 0.5 h, 37° C., LOQ = 0.500 μg/mL) was “<LOQ”, the pH [1, 5] was “(4.60)” and the XRPD [1, 5] was “AF^2”. The Solubility ([1]; 50 mM acetate buffer (4.5), 1.0 h, 37° C., LOQ = 0.500 μg/mL) was “<LOQ”, the pH ([1]; 50 mM acetate buffer (4.5), 1.0 h, 37° C.) was “(4.55)” and the Solubility ([1]; 0.1N HCl (1.2), 0.5 h, 37° C., LOQ = 0.500 μg/mL) was “<LOQ”. For the same substance, the pH ([1]; 0.1N HCl (1.2), 0.5 h, 37° C.) was “(0.95)”, the Solubility ([1]; 0.1N HCl (1.2), 1.0 h, 37° C., LOQ = 0.500 μg/mL) was “<LOQ” and the pH ([1]; 0.1N HCl (1.2), 1.0 h, 37° C.) was “(1.06)”. The XRPD ([1]; 0.1N HCl (1.2), 1.0 h, 37° C.) was “AF^1”, the “Kinetic solubility, comparison between forms” value ([1]; 37° C., 0.5 and 1 h) was “higher than that of L-arginine salt Form A” and the Solubility ([1]; FaSSIF (6.5), 0.5 h, 37° C.) was 0.0091 mg/mL. For the same substance, the pH ([1]; FaSSIF (6.5), 0.5 h, 37° C.) was “(6.53)”, the XRPD ([1]; FaSSIF (6.5), 0.5 h, 37° C.) was “AF^3” and the Solubility ([1]; FaSSIF (6.5), 1.0 h, 37° C.) was 0.0102 mg/mL. The pH ([1]; FaSSIF (6.5), 1.0 h, 37° C.) was “(6.60)”, the XRPD ([1]; FaSSIF (6.5), 1.0 h, 37° C.) was “AF^3” and the Solubility ([1]; FeSSIF (5.0), 0.5 h, 37° C.) was 0.0427 mg/mL. For the same substance, the pH ([1]; FeSSIF (5.0), 0.5 h, 37° C.) was “(4.98)”, the Solubility ([1]; FeSSIF (5.0), 1.0 h, 37° C.) was 0.0409 mg/mL and the pH ([1]; FeSSIF (5.0), 1.0 h, 37° C.) was “(5.06)”. The XRPD ([1]; FeSSIF (5.0), 1.0 h, 37° C.) was “AF^1”, the Solubility ([1]; H2O, 0.5 h, 37° C.) was 1.907 mg/mL and the pH ([1]; H2O, 0.5 h, 37° C.) was “(8.50)”. The Solubility ([1]; H2O, 1.0 h, 37° C.) was 1.7422 mg/mL, the pH ([1]; H2O, 1.0 h, 37° C.) was “(8.34)” and the Solubility ([1]; SGF (2.0), 0.5 h, 37° C.) was 0.0142 mg/mL. The pH ([1]; SGF (2.0), 0.5 h, 37° C.) was “(2.13)”, the XRPD ([1]; SGF (2.0), 0.5 h, 37° C.) was “AF^1” and the Solubility ([1]; SGF (2.0), 1.0 h, 37° C.) was 0.0158 mg/mL. The pH ([1]; SGF (2.0), 1.0 h, 37° C.) was “(2.17)”, the XRPD ([1]; SGF (2.0), 1.0 h, 37° C.) was “AF^1” and the Solubility [1, 6] was 0.179 mg/mL. The pH [1, 6] was “(7.99)”, the XRPD [1, 6] was “AF^3” and the Solubility [1, 7] was 0.1642 mg/mL. For the same substance, the pH [1, 7] was “(7.99)”, the XRPD [1, 7] was “AF^3” and the “Disproportionation after solubility study (XRPD)” value ([1]; solids after kinetic solubility test) was “disproportionation was observed”. For the same substance, the “Chemical and physical stability” value ([2]; 25° C./92.5% RH open, 40° C./75% RH open, 60° C. tight container, over 2 weeks, listed as Na salt Form A) was “chemically stable in these conditions but physically unstable at 25° C./92.5% RH and 40° C./75% RH”, the “Color Change” value [2, 8] was “No” and the “HPLC purity (%)” value [2, 8] was 99.1%. For the same substance, the “HPLC purity/initial (%)” value [2, 8] was over 100%, the Form change ([2]; 25° C./92.5% RH, open container, 2 weeks, * Likely isomorphic hydrate) was “Yes*” and the “Color Change” value [2, 9] was “No”. The “HPLC purity (%)” value [2, 9] was 99.1%, the “HPLC purity/initial (%)” value [2, 9] was over 100% and the Form change ([2]; 40° C./75% RH, open container, 2 weeks, * Likely isomorphic hydrate) was “Yes*”. The “Color Change” value [2, 10] was “No”, the “HPLC purity (%)” value [2, 10] was 99.1% and the “HPLC purity/initial (%)” value [2, 10] was over 100%. For the same substance, the Form change [2, 10] was “No”, the “HPLC purity (%)” value ([2]; Initial) was 99.0% and the “Water uptake (@ 25° C./40-95% RH)” value ([3]; DVS, 25° C., 40-95% RH) was 10.4%. The “Form change after DVS” value ([3]; listed as Compound I Na salt Form A) was “converted to a new form; also recorded: form change was observed”, the “Form change after DVS” value ([3]; listed as Na salt Form A) was “Yes*” and the “Tmax (median)” value [4] was 2.0 h. For the same substance, the “Tmax (range)” value [4] was “[1.0-2.0] h”, the Cmax ([4]; mean) was 0.0641 µg/mL and the AUClast ([4]; mean, t = 8 h) was 198 h*ng/m:.
